Measured values taken from ChEMBL document CHEMBL1268944, “The antiplasmodial activity of norcantharidin analogs” (Bioorg Med Chem Lett, 2010).

What was measured:
Plasmodium falciparum [1] = test: Antiplasmodial activity against chloroquine-sensitive Plasmodium falciparum D6 assessed as inhibition of parasite LDH activity after 72 hrs by malstat reagent method; assay type: functional, organism-based; details: D6, 72 h
Plasmodium falciparum [2] = test: Antiplasmodial activity against chloroquine-resistant Plasmodium falciparum W2 assessed as inhibition of parasite LDH activity […] after 72 hrs by malstat reagent method; assay type: functional, organism-based; details: W2, 72 h
[3] = Inhibition of human PP1
[4] = Inhibition of human PP2A
Homo sapiens [5] = organism: Homo sapiens; test: Inhibition of human PP2A at 100 uM
Homo sapiens [6] = organism: Homo sapiens; test: Inhibition of human PP1 at 100 uM
[7] = Inhibition of human PP1 expressed in Escherichia coli BL21
[8] = Inhibition of human PP2A expressed in Escherichia coli BL21
[9] = Solubility of the compound in PP1 assay medium at 40 mM; assay type: physicochemical; details: 40000 µM
[10] = Solubility of the compound in PP2A assay medium at 40 mM; assay type: physicochemical; details: 40000 µM

Row | Compound | IC50 (Plasmodium falciparum [1]) [µM] | IC50 (Plasmodium falciparum [2]) [µM] | IC50 [3] [µM] | IC50 [4] [µM] | also measured
1 | O=C(O)C1C(C(=O)Nc2ccccc2)[C@H]2CC[C@@H]1O2 (some centres undefined) | 300 | 363 | 24 | 7.7 | 
2 | CCCCCCN1C(=O)C2C(C1=O)[C@H]1CC[C@@H]2O1 (some centres undefined) | 175 | 90 |  |  | 
3 | C#Cc1cccc(NC(=O)C2C(C(=O)O)[C@@H]3CC[C@H]2O3)c1 (some centres undefined) | 193 | 194 | 20 | 16 | 
4 | O=C(O)C1C(C(=O)Nc2cccc(I)c2)[C@H]2CC[C@@H]1O2 (some centres undefined) | 217 | 283 | 44 | 18 | 
5 | CCCCNC(=O)C1C(C(=O)O)[C@@H]2CC[C@H]1O2 (some centres undefined) | > 500 | > 500 | 70 | 24 | 
6 | Cc1cc(C)c(NC(=O)C2C(C(=O)O)[C@@H]3CC[C@H]2O3)c(C)c1 (some centres undefined) | 340 | > 500 |  |  | inhibition (Homo sapiens [5]): 23%; inhibition (Homo sapiens [6]): 63%
7 | CCCCCOc1ccc(NC(=O)C2C(C(=O)O)[C@@H]3CC[C@H]2O3)cc1 (some centres undefined) | 110 | 333 | 11 | 15 | 
8 | O=C(O)C1C(C(=O)Nc2cccc3ccccc23)[C@H]2CC[C@@H]1O2 (some centres undefined) | 210 | 193 |  |  | inhibition (Homo sapiens [5]): 73%; inhibition (Homo sapiens [6]): 79%
9 | Cc1cccc(C)c1NC(=O)C1C(C(=O)O)[C@@H]2CC[C@H]1O2 (some centres undefined) | 306 | 290 |  |  | inhibition (Homo sapiens [5]): 24%; inhibition (Homo sapiens [6]): 68%
10 | Nc1ccccc1CN1C(=O)C2C(C1=O)[C@H]1CC[C@@H]2O1 (some centres undefined) | > 500 | > 500 |  |  | 
11 | CSc1ccccc1NC(=O)C1C(C(=O)O)[C@@H]2CC[C@H]1O2 (some centres undefined) | 340 | > 500 |  |  | inhibition (Homo sapiens [5]): 58%; inhibition (Homo sapiens [6]): 76%
12 | O=C1C2C(C(=O)N1C1CCCCC1)[C@H]1CC[C@@H]2O1 (some centres undefined) | 140 | 55 |  |  | 
13 | O=C1C2C(C(=O)N1CCN1CCOCC1)[C@H]1CC[C@@H]2O1 (some centres undefined) | > 500 | > 500 |  |  | 
14 | CC(CO)N1C(=O)C2C(C1=O)[C@H]1CC[C@@H]2O1 (some centres undefined) | > 500 | > 500 |  |  | 
15 | O=C(O)C1C(C(=O)Nc2cccc(CO)c2)[C@H]2CC[C@@H]1O2 (some centres undefined) | 440 | 390 | 15 | 7 | 
16 | CCCCCCOc1ccc(NC(=O)C2C(C(=O)O)[C@@H]3CC[C@H]2O3)cc1 (some centres undefined) | 130 | 70 | 60 | 20 | 
17 | O=C(O)C1C(C(=O)N2CCSCC2)[C@H]2CC[C@@H]1O2 (some centres undefined) | 250 | 204 | 3.2 | 5.1 | 
18 | O=C(O)C1C(C(=O)Nc2ccc3ccccc3c2)[C@H]2CC[C@@H]1O2 (some centres undefined) | 280 | 257 | 14 | 15 | 
19 | O=C(O)[C@@H]1[C@H](C(=O)O)[C@H]2CC[C@@H]1O2 [ENDOTHALL] |  |  |  |  | IC50 [7]: 4 µM; IC50 [8]: 90 nM
20 | O=C(O)C1C(C(=O)Nc2ccc(O)cc2)[C@H]2CC[C@@H]1O2 (some centres undefined) | 265 | 333 | 28 | 7.7 | 
21 | C=Cc1ccc(NC(=O)C2C(C(=O)O)[C@@H]3CC[C@H]2O3)cc1 (some centres undefined) | > 500 | 400 | 23 | 11 | 
22 | CC(C)(C)c1ccc(C(C)(C)C)c(NC(=O)C2C(C(=O)O)[C@@H]3CC[C@H]2O3)c1 (some centres undefined) | 40 | 205 |  |  | solubility [9]: Insoluble; solubility [10]: Insoluble
23 | CCc1ccccc1NC(=O)C1C(C(=O)O)[C@@H]2CC[C@H]1O2 (some centres undefined) | 360 | 400 | 51 | 24 | 
24 | O=C(O)C1C(C(=O)Nc2cccc(Cl)c2)[C@H]2CC[C@@H]1O2 (some centres undefined) | 250 | 185 | 31 | 14 | 
25 | COc1ccc(NC(=O)C2C(C(=O)O)[C@@H]3CC[C@H]2O3)cc1 (some centres undefined) | 500 | > 500 | 16 | 16 | 
26 | O=C(O)C1C(C(=O)NCCc2ccccc2)[C@H]2CC[C@@H]1O2 (some centres undefined) | 243 | 300 | 33 | 29 | 
27 | O=C(O)C1C(C(=O)Nc2ccc(CO)cc2)[C@H]2CC[C@@H]1O2 (some centres undefined) | 160 | 163 | 15 | 7.2 | 
28 | NCCCN1C(=O)C2C(C1=O)[C@H]1CC[C@@H]2O1 (some centres undefined) | > 500 | > 500 |  |  | 
29 | O=C(O)C1C(C(=O)NCCN2CCOCC2)[C@H]2CC[C@@H]1O2 (some centres undefined) | > 500 | > 500 | 30 | 43 | 
30 | CCCN1C(=O)C2C(C1=O)[C@H]1CC[C@@H]2O1 (some centres undefined) | > 500 | > 500 |  |  | 
